Assay results published in US9169213B2, “Method of weight management” (Arena Pharmaceuticals, Inc., priority 2012, dated 2015).
Values joined by “and” are separate entries in the source; they are usually repeats but may differ in a detail not shown here. Equal values may be shown once.

Columns and labels:
Type in all cases: in vivo, human
[1] = Pooled BLOOM and BLOSSOM Phase 3 studies: Week 52 outcomes by Week 12/Week 24 responder status, patients without T2DM; details: for Diastolic BP, Week 52 Change from Baseline Mean (SE) / HbA1c, Week 52 Change from Baseline Mean (SE) / Heart Rate, Week 52 Change from Baseline Mean (SE) / Systolic BP, Week 52 Change from Baseline Mean (SE): Without T2DM
Experimental: APD356-009 (“BLOOM”) was a 104-week, placebo controlled study that assessed the safety and efficacy of lorcaserin 10 mg BID in overweight and obese patients, with concurrent behavior modification. The primary efficacy objective during Year 1 was to evaluate weight loss; the primary objective during Year 2 was to assess the ability of lorcaserin to maintain body weight loss that was achieved during Year 1. At study start, each patient received randomized, double blind treatment assignments for Year 1 and for Year 2 (all patients were given a new randomization number for Year 2 to assure that patients and study personnel remained blinded to treatment assignments). All patients assigned to placebo during Year 1 (50% of randomized population) remained on placebo in Year 2. Patients assigned to lorcaserin during Year 1 were randomly assigned to stay on lorcaserin during Year 2 (⅔ of Year 1 lorcaserin patients) or to switch to placebo (⅓ of Year 1 lorcaserin patients).
APD356-011 (“BLOSSOM”) was a 52-week, placebo controlled study that evaluated the effect of two lorcaserin doses (10 mg BID and 10 mg QD) on categorical and total weight loss with concurrent behavior modification. Patients were randomized in a ratio of 2:1:2 to lorcaserin 10 mg BID, 10 mg QD, or placebo.
(§1) An analysis of early weight loss was performed, at each visit after baseline through Week 24, as a predictor of ultimate weight loss success, as defined by achieving at least about 5% weight loss at 52 weeks, or at least about 10% weight loss at 52 weeks.

[2] = BLOOM-DM (APD356-010) Phase 3 study: Week 52 outcomes by Week 12/Week 24 responder status, patients with type 2 diabetes mellitus; details: for Diastolic BP, Week 52 Change from Baseline Mean (SE) / HbA1c, Week 52 Change from Baseline Mean (SE) / Heart Rate, Week 52 Change from Baseline Mean (SE) / Systolic BP, Week 52 Change from Baseline Mean (SE): With T2DM
Experimental: APD356-010 (BLOOM-DM) was a 52-week, placebo controlled study that evaluated the effect of two lorcaserin doses (10 mg BID and 10 mg QD) on categorical and total weight loss with concurrent behavior modification in 604 patients with type 2 diabetes mellitus managed with oral hypoglycemic agents. Randomization to the 10 mg once daily group was halted by protocol amendment in order to accelerate enrollment, resulting in final group sizes of 253 (placebo), 95 (lorcaserin QD) and 256 (lorcaserin BID).
as §1
Table 3 and Table 4 provide the sensitivity, specificity, positive predicted value (PPV) and negative predictive value (NPV) at Weeks 12 and 24 for at least about 5% and at least about 10% weight loss at Week 52 in different studies. The rounded percent weight loss at Week 12 for at least 5% and at least about 10% weight loss at Week 52 are about 5% and about 6%, respectively. Using the about 6% weight loss at Week 12 as a criterion enhances the PPV for both about 5% and about 10% categorical weight loss at Week 52, but at the expense of excluding about 10% and about 4% more of the about 5% categorical responders at Week 52 in patients without and with diabetes, respectively, based upon NPV. The rounded optimal thresholds at Week 24 for at least about 5% and at least about 10% weight loss at Week 52 are about 6% and about 9%, respectively. Using the 9% weight loss criterion at Week 24 enhances the PPV for both about 5% and about 10% categorical weight loss at Week 52, but at the expense of excluding about 19% and about 9% more of the about 5% categorical responders at Week 52 in patients without and with diabetes, respectively, based upon NPV. As described below, if at least about a 5% weight loss criterion is applied, patients achieving this milestone will achieve an average of about 10.8% weight loss in patients without diabetes and about 9.1% weight loss in patients with diabetes at Week 52.
Tables 6 and 7, below, present weight loss, vital sign, and glycemic changes at Week 52 in pooled patients without diabetes, patients with T2DM, and pooled patients with impaired fasting glucose (IFG; ≧100 mg/dL) who were Week 12 responders.

[3] = Lorcaserin pivotal phase 3 clinical trial program (NDA summary)
Excerpt: The NDA submission is based on an extensive data package from lorcaserin's clinical development program that includes 18 clinical trials totaling 8,576 patients. […] About two-thirds of patients achieved at least 5% weight loss and over one-third achieved at least 10% weight loss. On average, patients lost 17 to 18 pounds or about 8% of their weight. Secondary endpoints, including body composition, lipids, cardiovascular risk factors and glycemic parameters improved compared to placebo. In addition, heart rate and blood pressure went down. […] Lorcaserin improved quality of life, and there was no signal for depression or suicidal ideation. The only adverse event that exceeded the placebo rate by 5% was generally mild or moderate, transient headache. Based on a normal BMI of 25, patients in the first phase 3 trial lost about one-third of their excess body weight. The average weight loss was 35 pounds or 16% of body weight for the top quartile of patients in the second phase 3 trial.

[4] = Week 12 Non-responder (<5%), Completers Population, 10 mg BID
[5] = Week 12 Non-responder (<5%), MITT with LOCF, 10 mg BID
[6] = Week 12 Responder (≧5% weight loss), Completers Population, 10 mg BID
[7] = Week 12 Responder (≧5% weight loss), MITT with LOCF, 10 mg BID
[8] = Week 12 responders without diabetes
[9] = Week 12 Nonresponder (5%), 10 mg BID
[10] = Week 12 Responder (5%), 10 mg BID
[11] = of patients with observed Week 12 data, without diabetes, 10 mg BID, listed as Lorcaserin
[12] = Week 12 Responder (≧5%), Completers Population, 10 mg BID
[13] = of patients with observed Week 12 data, type 2 diabetes, 10 mg BID

C[C@H]1CNCCc2ccc(Cl)cc21 [lorcaserin, (R)-8-chloro-1-methyl-2,3,4,5-tetrahydro-1H-3-benzazepine]
Week 52 Weight 5% Responder [1, 4]: 35.9% | Week 52 Weight 10% Responder [1, 4]: 7.4% | Week 52 Weight Mean (SE) Change from Baseline, kg [1, 4]: −3.50 (0.18) kg | Week 52 Weight Mean (SE) Percent Change from Baseline, % [1, 4]: −3.44 (0.18) % | Week 52 Weight 10% Responder [1, 5]: 4.7% | Week 52 Weight Mean (SE) Change from Baseline, kg [1, 5]: −2.76 (0.12) kg | Week 52 Weight Mean (SE) Percent Change from Baseline, % [1, 5]: −2.73 (0.12) % | Week 52 Weight 5% Responder [1, 6]: 85.8% | Week 52 Weight 10% Responder [1, 6]: 55.9% | Week 52 Weight Mean (SE) Change from Baseline, kg [1, 6]: −11.31 (0.21) kg | Week 52 Weight Mean (SE) Percent Change from Baseline, % [1, 6]: −11.52 (0.21) % | Week 52 Weight 10% Responder [1, 7]: 49.8% | Week 52 Weight Mean (SE) Change from Baseline, kg [1, 7]: −10.63 (0.18) kg | Week 52 Weight Mean (SE) Percent Change from Baseline, % [1, 7]: −10.84 (0.18) % | Week 52 reduction in diastolic blood pressure [1, 8]: 2.5 mmHg | Week 52 reduction in heart rate [1, 8]: 2.5 BPM | Week 52 reduction in systolic blood pressure [1, 8]: 3.4 mmHg | Diastolic BP, Week 52 Change from Baseline Mean (SE) [1, 9]: −1.02 (0.25) | HbA1c, Week 52 Change from Baseline Mean (SE) [1, 9]: −0.05 (0.01) | Heart Rate, Week 52 Change from Baseline Mean (SE) [1, 9]: −0.29 (0.26) | Systolic BP, Week 52 Change from Baseline Mean (SE) [1, 9]: −0.82 (0.34) | Diastolic BP, Week 52 Change from Baseline Mean (SE) [1, 10]: −2.52 (0.25) | HbA1c, Week 52 Change from Baseline Mean (SE) [1, 10]: −0.18 (0.01) | Heart Rate, Week 52 Change from Baseline Mean (SE) [1, 10]: −2.45 (0.26) | Systolic BP, Week 52 Change from Baseline Mean (SE) [1, 10]: −3.39 (0.34) | Week 12 Non-Responder (<5% wt loss), percentage of patients ([1]; of patients with observed Week 12 data, without diabetes, 10 mg BID): 1,286/2,537(50.7%) | Week 12 Non-Responder (<5% wt loss), percentage of patients [1, 11]: 1286 (50.7%) | Week 12 Responder (at least 5% weight loss at Week 12), percentage of patients [1, 11]: 1251 (49.3%) | average weight loss at Week 52 ([1]; patients without diabetes achieving at least about 5% weight loss at Week 12): about 10.8% | Week 52 Weight 5% Responder [2, 4]: 29.0% | Week 52 Weight 10% Responder [2, 4]: 10.0% | Week 52 Weight Mean (SE) Change from Baseline, kg [2, 4]: −3.45 (0.44) kg | Week 52 Weight Mean (SE) Percent Change from Baseline, % [2, 4]: −3.36 (0.42) % | Week 52 Weight 5% Responder [2, 5]: 25.2% | Week 52 Weight 10% Responder [2, 5]: 8.6% | Week 52 Weight Mean (SE) Change from Baseline, kg [2, 5]: −3.20 (0.36) kg | Week 52 Weight Mean (SE) Percent Change from Baseline, % [2, 5]: −3.13 (0.35) % | Week 52 Weight 5% Responder [2, 7]: 71% and 70.5% | Week 52 Weight 10% Responder [2, 7]: 36% and 35.9% | Week 52 Weight Mean (SE) Change from Baseline, kg [2, 7]: −9.26 (0.77) kg | Week 52 Weight Mean (SE) Percent Change from Baseline, % [2, 7]: −9.07 (0.70) % | Week 52 Weight 5% Responder [2, 12]: 70.8% | Week 52 Weight 10% Responder [2, 12]: 40.0% | Week 52 Weight Mean (SE) Change from Baseline, kg [2, 12]: −9.77 (0.89) kg | Week 52 Weight Mean (SE) Percent Change from Baseline, % [2, 12]: −9.49 (0.80) % | change in HbA1c at Week 52 ([2]; Week 12 non-responders with type 2 diabetes): −0.84% | Week 52 reduction in diastolic blood pressure ([2]; Week 12 responders with T2DM): 1.9 mmHg | Week 52 reduction in heart rate ([2]; Week 12 responders with T2DM): 3.2 BPM | Week 52 reduction in systolic blood pressure ([2]; Week 12 responders with T2DM): 2.6 mmHg | A1C W52 Change ([2]; Week 12 responders, patients with T2DM, 10 mg BID): −1.2% | Diastolic BP, Week 52 Change from Baseline Mean (SE) [2, 9]: −1.07 (0.86) | HbA1c, Week 52 Change from Baseline Mean (SE) [2, 9]: −0.84 (0.09) | Heart Rate, Week 52 Change from Baseline Mean (SE) [2, 9]: −0.87 (0.73) | Systolic BP, Week 52 Change from Baseline Mean (SE) [2, 9]: −0.55 (1.11) | Diastolic BP, Week 52 Change from Baseline Mean (SE) [2, 10]: −1.91 (1.01) | HbA1c, Week 52 Change from Baseline Mean (SE) [2, 10]: −1.20 (0.11) | Heart Rate, Week 52 Change from Baseline Mean (SE) [2, 10]: −3.24 (1.21) | Systolic BP, Week 52 Change from Baseline Mean (SE) [2, 10]: −2.59 (1.73) | Week 12 Non-Responder, percentage of patients [2, 13]: 139 (64.1%) | Week 12 Responder (at least 5% weight loss at Week 12), percentage of patients [2, 13]: 35.9% | Week 12 Responder (at least 5% weight loss at Week 12), percentage of patients ([2]; of patients with observed Week 12 data, type 2 diabetes, 10 mg BID, listed as Lorcaserin): 78 (35.9%) | average weight loss at Week 52 ([2]; patients with diabetes achieving at least about 5% weight loss at Week 12): about 9.1% | risk of cardiac valvulopathy ([3]; phase 3 program): did not increase | average weight lost, of their weight ([3]; pivotal phase 3 program): about 8% | average weight loss of body weight, top quartile of patients ([3]; second phase 3 trial): 16% | average weight loss, top quartile of patients ([3]; second phase 3 trial): 35 pounds
